According to patent EP2768830B1, “APOPTOSIS-INDUCING AGENTS FOR THE TREATMENT OF CANCER AND IMMUNE AND AUTOIMMUNE DISEASES” (AbbVie Inc., priority 2011, dated 2013):
Read-outs that look alike come from different tables or passages of the source.

Legend:
GST-Bcl-xL = GST-Bcl-xL (Homo sapiens, UniProt Q07817); details: read-out: TR-FRET binding Bcl-xL Ki
[1] = tested on: mouse FL5.12 cells transfected with Bcl-XL; experiment: FL5.12 cellular assay (cell viability, CellTiter-Glo); assay type: cell-based; details: FL5.12 cells transfected with Bcl-XL, IL-3-depleted, 3% FBS assay media, 24 hours, CellTiter-Glo, read-out: FL5.12 Bcl-xL, - IL3, EC 50;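 note: each EC50 determination derived from duplicate measurements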

Sequence of GST-Bcl-xL (Q07817 whole entry): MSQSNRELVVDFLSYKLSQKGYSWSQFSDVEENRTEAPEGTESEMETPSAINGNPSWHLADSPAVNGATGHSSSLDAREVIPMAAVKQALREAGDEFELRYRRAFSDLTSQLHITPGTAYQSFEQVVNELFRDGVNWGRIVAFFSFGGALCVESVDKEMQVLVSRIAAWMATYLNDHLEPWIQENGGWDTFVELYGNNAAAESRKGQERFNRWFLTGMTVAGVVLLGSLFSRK

Row | Structure (SMILES) | Ki (GST-Bcl-xL) | EC50 ([1]; Mus musculus) | EC50 [1]
1 | CC1(C)CCCC(Cn2cc(-c3ccc(N4CCc5cccc(C(=O)Nc6nc7ccccc7s6)c5C4)nc3C(=O)O)cn2)C1 (centres unmarked) [Example 92, 6-[8-(1,3-benzothiazol-2-ylcarbamoyl)-3,4-dihydroisoquinolin-2(1H)-yl]-3-{1-[(3,3-dimethylcyclohexyl)methyl]-1H-pyrazol-4-yl}pyridine-2-carboxylic acid] | 2 nM | 56 nM | –
2 | COCCC(c1ccccc1)n1cc(-c2ccc(N3CCc4cccc(C(=O)Nc5nc6ccccc6s5)c4C3)nc2C(=O)O)cn1 (centres unmarked) [Example 93, 6-[8-(1,3-benzothiazol-2-ylcarbamoyl)-3,4-dihydroisoquinolin-2(1H)-yl]-3-[1-(3-methoxy-1-phenylpropyl)-1H-pyrazol-4-yl]pyridine-2-carboxylic acid] | 16 nM | 295 nM | –
3 | COCCCC(c1ccccc1)n1cc(-c2ccc(N3CCc4cccc(C(=O)Nc5nc6ccccc6s5)c4C3)nc2C(=O)O)cn1 (centres unmarked) [Example 94, 6-[8-(1,3-benzothiazol-2-ylcarbamoyl)-3,4-dihydroisoquinolin-2(1H)-yl]-3-[1-(4-methoxy-1-phenylbutyl)-1H-pyrazol-4-yl]pyridine-2-carboxylic acid] | 5 nM | 253 nM | –
4 | COC(=O)C(c1ccccc1)n1cc(-c2ccc(N3CCc4cccc(C(=O)Nc5nc6ccccc6s5)c4C3)nc2C(=O)O)cn1 (centres unmarked) [Example 95, 6-[8-(1,3-benzothiazol-2-ylcarbamoyl)-3,4-dihydroisoquinolin-2(1H)-yl]-3-[1-(2-methoxy-2-oxo-1-phenylethyl)-1H-pyrazol-4-yl]pyridine-2-carboxylic acid] | 11 nM | 542 nM | –
5 | O=C(Nc1nc2ccccc2s1)c1cccc2c1CN(c1ccc(-c3cnn(C(CC4CCCCC4)c4ccccc4)c3)c(C(=O)O)n1)CC2 (centres unmarked) [Example 96, 6-[8-(1,3-benzothiazol-2-ylcarbamoyl)-3,4-dihydroisoquinolin-2(1H)-yl]-3-[1-(2-cyclohexyl-1-phenylethyl)-1H-pyrazol-4-yl]pyridine-2-carboxylic acid] | 12 nM | 620 nM | –
6 | COCCCC1(Cn2ncc(-c3ccc(N4CCc5cccc(C(=O)Nc6nc7ccccc7s6)c5C4)nc3C(=O)O)c2C)CCCCC1 [Example 97, 6-[8-(1,3-benzothiazol-2-ylcarbamoyl)-3,4-dihydroisoquinolin-2(1H)-yl]-3-(1-{[1-(3-methoxypropyl)cyclohexyl]methyl}-5-methyl-1H-pyrazol-4-yl)pyridine-2-carboxylic acid] | 2 nM | – | < 1 nM
7 | Cc1c(-c2ccc(N3CCc4cccc(C(=O)Nc5nc6ccccc6s5)c4C3)nc2C(=O)O)cnn1Cc1ccccc1OCC(C)(CO)CO [Example 98, 6-[8-(1,3-benzothiazol-2-ylcarbamoyl)-3,4-dihydroisoquinolin-2(1H)-yl]-3-(1-{2-[3-hydroxy-2-(hydroxymethyl)-2-methylpropoxy]benzyl}-5-methyl-1H-pyrazol-4-yl)pyridine-2-carboxylic acid] | 2 nM | 421 nM | –
8 | Cc1c(-c2ccc(N3CCc4cccc(C(=O)Nc5nc6ccccc6s5)c4C3)nc2C(=O)O)cnn1Cc1ccccc1OCC1COCCO1 (centres unmarked) [Example 100, 6-[8-(1,3-benzothiazol-2-ylcarbamoyl)-3,4-dihydroisoquinolin-2(1H)-yl]-3-{1-[2-(1,4-dioxan-2-ylmethoxy)benzyl]-5-methyl-1H-pyrazol-4-yl}pyridine-2-carboxylic acid] | 3 nM | 66 nM | –
9 | COCCOC1(Cn2ncc(-c3ccc(N4CCc5cccc(C(=O)Nc6nc7ccccc7s6)c5C4)nc3C(=O)O)c2C)CCCCC1 [Example 101, 6-[8-(1,3-benzothiazol-2-ylcarbamoyl)-3,4-dihydroisoquinolin-2(1H)-yl]-3-(1-{[1-(2-methoxyethoxy)cyclohexyl]methyl}-5-methyl-1H-pyrazol-4-yl)pyridine-2-carboxylic acid] | 0.4 nM | < 1 nM | –
10 | O=C(Nc1nc2ccccc2s1)c1cccc2c1CN(c1ccc(-c3cccc(Oc4ccccc4)c3)c(C(=O)O)n1)CC2 [Example 103, 6-[8-(1,3-benzothiazol-2-ylcarbamoyl)-3,4-dihydroisoquinolin-2(1H)-yl]-3-(3-phenoxyphenyl)pyridine-2-carboxylic acid] | 0.6 nM | – | > 1000 nM
11 | O=C(Nc1nc2ccccc2s1)c1cccc2c1CN(c1ccc(-c3cccc(Oc4ccc([N+](=O)[O-])cc4)c3)c(C(=O)O)n1)CC2 [Example 104, 6-[8-(1,3-benzothiazol-2-ylcarbamoyl)-3,4-dihydroisoquinolin-2(1H)-yl]-3-[3-(4-nitrophenoxy)phenyl]pyridine-2-carboxylic acid] | 14 nM | > 1000 nM | –
12 | O=C(Nc1nc2ccccc2s1)c1cccc2c1CN(c1ccc(-c3cccc(Oc4ccc(Cl)cc4)c3)c(C(=O)O)n1)CC2 [Example 105, 6-[8-(1,3-benzothiazol-2-ylcarbamoyl)-3,4-dihydroisoquinolin-2(1H)-yl]-3-[3-(4-chlorophenoxy)phenyl]pyridine-2-carboxylic acid] | 7 nM | > 1000 nM | –
13 | O=C(Nc1nc2ccccc2s1)c1cccc2c1CN(c1ccc(-c3cccc(Cc4ccccc4)c3)c(C(=O)O)n1)CC2 [Example 106, 6-[8-(1,3-benzothiazol-2-ylcarbamoyl)-3,4-dihydroisoquinolin-2(1H)-yl]-3-(3-benzylphenyl)pyridine-2-carboxylic acid] | 0.1 nM | 234 nM | –
14 | Cc1ccc(-c2ccc(N3CCc4cccc(C(=O)Nc5nc6ccccc6s5)c4C3)nc2C(=O)O)cc1Oc1ccccc1 [Example 108, 6-[8-(1,3-benzothiazol-2-ylcarbamoyl)-3,4-dihydroisoquinolin-2(1H)-yl]-3-(4-methyl-3-phenoxyphenyl)pyridine-2-carboxylic acid] | 9 nM | > 1000 nM | –
15 | Cc1ccc(Oc2ccccc2)cc1-c1ccc(N2CCc3cccc(C(=O)Nc4nc5ccccc5s4)c3C2)nc1C(=O)O [Example 109, 6-[8-(1,3-benzothiazol-2-ylcarbamoyl)-3,4-dihydroisoquinolin-2(1H)-yl]-3-(2-methyl-5-phenoxyphenyl)pyridine-2-carboxylic acid] | 49 nM | > 1000 nM | –
16 | Cc1cc(Oc2ccccc2)ccc1-c1ccc(N2CCc3cccc(C(=O)Nc4nc5ccccc5s4)c3C2)nc1C(=O)O [Example 111, 6-[8-(1,3-benzothiazol-2-ylcarbamoyl)-3,4-dihydroisoquinolin-2(1H)-yl]-3-(2-methyl-4-phenoxyphenyl)pyridine-2-carboxylic acid] | 21 nM | > 1000 nM | –
17 | Cc1c(OCC2CCCCC2)cccc1-c1ccc(N2CCc3cccc(C(=O)Nc4nc5ccccc5s4)c3C2)nc1C(=O)O [Example 112, 6-[8-(1,3-benzothiazol-2-ylcarbamoyl)-3,4-dihydroisoquinolin-2(1H)-yl]-3-[3-(cyclohexylmethoxy)-2-methylphenyl]pyridine-2-carboxylic acid] | 0.7 nM | 523 nM | –
18 | Cc1cc(OC2CCCCC2)ccc1-c1ccc(N2CCc3cccc(C(=O)Nc4nc5ccccc5s4)c3C2)nc1C(=O)O [Example 113, 6-[8-(1,3-benzothiazol-2-ylcarbamoyl)-3,4-dihydroisoquinolin-2(1H)-yl]-3-[4-(cyclohexyloxy)-2-methylphenyl]pyridine-2-carboxylic acid] | 19 nM | > 1000 nM | –
19 | Cc1c(OC2CCCCC2)cccc1-c1ccc(N2CCc3cccc(C(=O)Nc4nc5ccccc5s4)c3C2)nc1C(=O)O [Example 114, 6-[8-(1,3-benzothiazol-2-ylcarbamoyl)-3,4-dihydroisoquinolin-2(1H)-yl]-3-[3-(cyclohexyloxy)-2-methylphenyl]pyridine-2-carboxylic acid] | 0.2 nM | 220 nM | –
20 | Cc1cc(OCC2CCCCC2)ccc1-c1ccc(N2CCc3cccc(C(=O)Nc4nc5ccccc5s4)c3C2)nc1C(=O)O [Example 115, 6-[8-(1,3-benzothiazol-2-ylcarbamoyl)-3,4-dihydroisoquinolin-2(1H)-yl]-3-[4-(cyclohexylmethoxy)-2-methylphenyl]pyridine-2-carboxylic acid] | 5 nM | 916 nM | –
21 | N#Cc1c(OC2CCCCC2)cccc1-c1ccc(N2CCc3cccc(C(=O)Nc4nc5ccccc5s4)c3C2)nc1C(=O)O [Example 116, 6-[8-(1,3-benzothiazol-2-ylcarbamoyl)-3,4-dihydroisoquinolin-2(1H)-yl]-3-[2-cyano-3-(cyclohexyloxy)phenyl]pyridine-2-carboxylic acid] | < 0.1 nM | 667 nM | –
22 | O=C(Nc1nc2ccccc2s1)c1cccc2c1CN(c1ccc(-c3cccc(OC4CCCCC4)c3Cl)c(C(=O)O)n1)CC2 [Example 117, 6-[8-(1,3-benzothiazol-2-ylcarbamoyl)-3,4-dihydroisoquinolin-2(1H)-yl]-3-[2-chloro-3-(cyclohexyloxy)phenyl]pyridine-2-carboxylic acid] | < 0.1 nM | 131 nM | –
23 | Cc1c(NC2CCCCC2)cccc1-c1ccc(N2CCc3cccc(C(=O)Nc4nc5ccccc5s4)c3C2)nc1C(=O)O [Example 118, 6-[8-(1,3-benzothiazol-2-ylcarbamoyl)-3,4-dihydroisoquinolin-2(1H)-yl]-3-[3-(cyclohexylamino)-2-methylphenyl]pyridine-2-carboxylic acid] | 0.2 nM | 361 nM | –
24 | O=C(Nc1nc2ccccc2s1)c1cccc2c1CN(c1ccc(-c3cccc(OC4CCCCC4)c3F)c(C(=O)O)n1)CC2 [Example 119, 6-[8-(1,3-benzothiazol-2-ylcarbamoyl)-3,4-dihydroisoquinolin-2(1H)-yl]-3-[3-(cyclohexyloxy)-2-fluorophenyl]pyridine-2-carboxylic acid] | < 0.1 nM | – | 762 nM
25 | O=C(Nc1nc2ccccc2s1)c1cccc2c1CN(c1ccc(-c3cccc(OC4CCCCC4)c3C(F)(F)F)c(C(=O)O)n1)CC2 [Example 120, 6-[8-(1,3-benzothiazol-2-ylcarbamoyl)-3,4-dihydroisoquinolin-2(1H)-yl]-3-[3-(cyclohexyloxy)-2-(trifluoromethyl)phenyl]pyridine-2-carboxylic acid] | 0.4 nM | 859 nM | –
